For the experiment, the target named is WDR5 (Homo sapiens (Human), UniProt P61964). The experiment can be described thus: Surface Plasmon Resonance (SPR) assay, KD and residence time. The class given is binding. To be noted: surface plasmon resonance (SPR) assay; read-out: WDR5 binding affinity (KD).

The structures appear in SMILES notation. pKd: −log10 of the molar value.

A word on the pKd: it is −log10 of the Kd, conventionally taken in molar units.

`COc1ncc(-c2cc(NC(=O)c3c[nH]c(=O)cc3C(F)(F)F)c(N3C[C@@H](C)N(C)[C@@H](C)C3)cc2F)cc1C(F)(F)F` [Example 136, N-[4-fluoro-5-[6-methoxy-5-(trifluoromethyl)pyridin-3-yl]-2-[(3R,5S)-3,4,5-trimethylpiperazin-1-yl]phenyl]-6-oxo-4-(trifluoromethyl)-1H-pyridine-3-carboxamide]: the pKd was 9.33.
Then `COc1cc(C#N)c(C(=O)Nc2cc(-c3cnc(N4CCOCC4)nc3)c(F)cc2N2C[C@@H](C)N(C)[C@@H](C)C2)cn1` [Example 137, 4-cyano-N-[4-fluoro-5-(2-morpholin-4-ylpyrimidin-5-yl)-2-[(3R,5S)-3,4,5-trimethylpiperazin-1-yl]phenyl]-6-methoxypyridine-3-carboxamide], with 7.71; and `C[C@@H]1CN(c2cc(F)c(-c3cnc(N4CCOCC4)nc3)cc2NC(=O)c2c(Cl)cccc2Cl)C[C@H](C)N1C` [Example 139, 2,6-dichloro-N-[4-fluoro-5-(2-morpholin-4-ylpyrimidin-5-yl)-2-[(3R,5S)-3,4,5-trimethylpiperazin-1-yl]phenyl]benzamide], with 8.23.
Regarding `C[C@@H]1CN(c2cc(F)c(-c3cnc(N4CCOCC4)nc3)cc2NC(=O)c2cccc(Cl)c2F)C[C@H](C)N1C` [Example 140, 3-chloro-2-fluoro-N-[4-fluoro-5-(2-morpholin-4-ylpyrimidin-5-yl)-2-[(3R,5S)-3,4,5-trimethylpiperazin-1-yl]phenyl]benzamide], the pKd is 7.73.
For `C[C@@H]1CN(c2cc(F)c(-c3cnc(N4CCOCC4)nc3)cc2NC(=O)c2ccccc2C(F)(F)F)C[C@H](C)N1C` [Example 141, N-[4-fluoro-5-(2-morpholin-4-ylpyrimidin-5-yl)-2-[(3R,5S)-3,4,5-trimethylpiperazin-1-yl]phenyl]-2-(trifluoromethyl)benzamide] the value was 7.79; for `C[C@@H]1CN(c2cc(F)c(-c3ccc(N(C)C)nc3)cc2NC(=O)c2c[nH]c(=O)cc2C(F)(F)F)C[C@H](C)N1C` [Example 142, N-[5-[6-(dimethylamino)pyridin-3-yl]-4-fluoro-2-[(3R,5S)-3,4,5-trimethylpiperazin-1-yl]phenyl]-6-oxo-4-(trifluoromethyl)-1H-pyridine-3-carboxamide], 9.01.
Then `C[C@@H]1CN(c2cc(F)c(C3=CCN(C(=O)OC(C)(C)C)CC3)cc2NC(=O)c2c[nH]c(=O)cc2C(F)(F)F)C[C@H](C)N1C` [Example 143, tert-butyl 4-[2-fluoro-5-[[6-oxo-4-(trifluoromethyl)-1H-pyridine-3-carbonyl]amino]-4-[(3R,5S)-3,4,5-trimethylpiperazin-1-yl]phenyl]-3,6-dihydro-2H-pyridine-1-carboxylate], with 8.91; and `C[C@@H]1CN(c2cc(F)c(-c3ccc(C(F)(F)F)cc3)cc2NC(=O)c2c[nH]c(=O)cc2C(F)(F)F)C[C@H](C)N1C` [Example 144, N-[4-fluoro-2-[(3R,5S)-3,4,5-trimethylpiperazin-1-yl]-5-[4-(trifluoromethyl)phenyl]phenyl]-6-oxo-4-(trifluoromethyl)-1H-pyridine-3-carboxamide], with 8.22.
Regarding `C[C@@H]1CN(c2cc(F)c(-c3ccc(OC(F)(F)F)cc3)cc2NC(=O)c2c[nH]c(=O)cc2C(F)(F)F)C[C@H](C)N1C` [Example 145, N-[4-fluoro-2-[(3R,5S)-3,4,5-trimethylpiperazin-1-yl]-5-[4-(trifluoromethoxy)phenyl]phenyl]-6-oxo-4-(trifluoromethyl)-1H-pyridine-3-carboxamide], the pKd is 8.17.
`C[C@@H]1CN(c2cc(F)c(-c3ccccc3)cc2NC(=O)c2c[nH]c(=O)cc2C(F)(F)F)C[C@H](C)N1C` [Example 146, N-[4-fluoro-5-phenyl-2-[(3R,5S)-3,4,5-trimethylpiperazin-1-yl]phenyl]-6-oxo-4-(trifluoromethyl)-1H-pyridine-3-carboxamide]: the pKd was 8.22.
Regarding `C[C@@H]1CN(c2cc(F)c(-c3ccc(Cl)cc3)cc2NC(=O)c2c[nH]c(=O)cc2C(F)(F)F)C[C@H](C)N1C` [Example 147, N-[5-(4-chlorophenyl)-4-fluoro-2-[(3R,5S)-3,4,5-trimethylpiperazin-1-yl]phenyl]-6-oxo-4-(trifluoromethyl)-1H-pyridine-3-carboxamide], the negative-log Kd (pKd) is 8.35.
For `COc1ccc(CN2CC=C(c3cc(NC(=O)c4c[nH]c(=O)cc4C(F)(F)F)c(N4C[C@@H](C)N(C)[C@@H](C)C4)cc3F)CC2)cc1` [Example 148, N-[4-fluoro-5-[1-[(4-methoxyphenyl)methyl]-3,6-dihydro-2H-pyridin-4-yl]-2-[(3R,5S)-3,4,5-trimethylpiperazin-1-yl]phenyl]-6-oxo-4-(trifluoromethyl)-1H-pyridine-3-carboxamide] the value was 9.27.
Then `Cc1cc(-c2cc(NC(=O)c3c[nH]c(=O)cc3C(F)(F)F)c(N3C[C@@H](C)N(C)[C@@H](C)C3)cc2F)cnn1` [Example 149, N-[4-fluoro-5-(6-methylpyridazin-4-yl)-2-[(3R,5S)-3,4,5-trimethylpiperazin-1-yl]phenyl]-6-oxo-4-(trifluoromethyl)-1H-pyridine-3-carboxamide], with 8.33; and `CC(C)CN1CC=C(c2cc(NC(=O)c3c[nH]c(=O)cc3C(F)(F)F)c(N3C[C@@H](C)N(C)[C@@H](C)C3)cc2F)CC1` [Example 150, N-[4-fluoro-5-[1-(2-methylpropyl)-3,6-dihydro-2H-pyridin-4-yl]-2-[(3R,5S)-3,4,5-trimethylpiperazin-1-yl]phenyl]-6-oxo-4-(trifluoromethyl)-1H-pyridine-3-carboxamide], with 8.05.
As for `C[C@@H]1CN(c2cc(F)c(C3=CCN(CC4CC4)CC3)cc2NC(=O)c2c[nH]c(=O)cc2C(F)(F)F)C[C@H](C)N1C` [Example 151, N-[5-[1-(cyclopropylmethyl)-3,6-dihydro-2H-pyridin-4-yl]-4-fluoro-2-[(3R,5S)-3,4,5-trimethylpiperazin-1-yl]phenyl]-6-oxo-4-(trifluoromethyl)-1H-pyridine-3-carboxamide], the negative-log Kd (pKd) was 8.13.
For `C[C@@H]1CN(c2cc(F)c(C3=CCN(CCC(F)(F)F)CC3)cc2NC(=O)c2c[nH]c(=O)cc2C(F)(F)F)C[C@H](C)N1C` [Example 152, N-[4-fluoro-2-[(3R,5S)-3,4,5-trimethylpiperazin-1-yl]-5-[1-(3,3,3-trifluoropropyl)-3,6-dihydro-2H-pyridin-4-yl]phenyl]-6-oxo-4-(trifluoromethyl)-1H-pyridine-3-carboxamide] the value was 8.20.
In the case of `C[C@@H]1CN(c2cc(F)c(C3=CCN(Cc4ccc(F)cc4)CC3)cc2NC(=O)c2c[nH]c(=O)cc2C(F)(F)F)C[C@H](C)N1C` [Example 153, N-[4-fluoro-5-[1-[(4-fluorophenyl)methyl]-3,6-dihydro-2H-pyridin-4-yl]-2-[(3R,5S)-3,4,5-trimethylpiperazin-1-yl]phenyl]-6-oxo-4-(trifluoromethyl)-1H-pyridine-3-carboxamide], the negative logarithm of the Kd (pKd) is 8.97.
For `C[C@@H]1CN(c2cc(F)c(C3=CCN(Cc4cccnc4)CC3)cc2NC(=O)c2c[nH]c(=O)cc2C(F)(F)F)C[C@H](C)N1C` [Example 154, N-[4-fluoro-5-[1-(pyridin-3-ylmethyl)-3,6-dihydro-2H-pyridin-4-yl]-2-[(3R,5S)-3,4,5-trimethylpiperazin-1-yl]phenyl]-6-oxo-4-(trifluoromethyl)-1H-pyridine-3-carboxamide] the value was 8.26.
Turning to `C[C@@H]1CN(c2cc(F)c(C3=CCN(Cc4ccsc4)CC3)cc2NC(=O)c2c[nH]c(=O)cc2C(F)(F)F)C[C@H](C)N1C` [Example 155, N-[4-fluoro-2-[(3R,5S)-3,4,5-trimethylpiperazin-1-yl]-5-[1-(thiophen-3-ylmethyl)-3,6-dihydro-2H-pyridin-4-yl]phenyl]-6-oxo-4-(trifluoromethyl)-1H-pyridine-3-carboxamide], the pKd is 8.32.
As for `C[C@@H]1CN(c2cc(F)c(-c3cncc(OCC4CC4)c3)cc2NC(=O)c2c[nH]c(=O)cc2C(F)(F)F)C[C@H](C)N1C` [Example 156, N-[5-[5-(cyclopropylmethoxy)pyridin-3-yl]-4-fluoro-2-[(3R,5S)-3,4,5-trimethylpiperazin-1-yl]phenyl]-6-oxo-4-(trifluoromethyl)-1H-pyridine-3-carboxamide], the pKd is 8.06.
For the molecule `C[C@@H]1CN(c2cc(F)c(-c3ccc(O)nc3)cc2NC(=O)c2c[nH]c(=O)cc2C(F)(F)F)C[C@H](C)N1C` [Example 157, N-[4-fluoro-5-(6-hydroxypyridin-3-yl)-2-[(3R,5S)-3,4,5-trimethylpiperazin-1-yl]phenyl]-6-oxo-4-(trifluoromethyl)-1H-pyridine-3-carboxamide], the pKd is 8.67.
As for `C[C@@H]1CN(c2cc(F)c(-c3cnc(N4CCNCC4)nc3)cc2NC(=O)c2c[nH]c(=O)cc2C(F)(F)F)C[C@H](C)N1C` [Example 158, N-[4-fluoro-5-(2-piperazin-1-ylpyrimidin-5-yl)-2-[(3R,5S)-3,4,5-trimethylpiperazin-1-yl]phenyl]-6-oxo-4-(trifluoromethyl)-1H-pyridine-3-carboxamide], the pKd was 9.46.
As to `C[C@@H]1CN(c2cc(F)c(-c3cnc(N4CCOCC4)nc3)cc2NC(=O)c2cc(F)cc(Cl)c2)C[C@H](C)N1C` [Example 159, 3-chloro-5-fluoro-N-[4-fluoro-5-(2-morpholin-4-ylpyrimidin-5-yl)-2-[(3R,5S)-3,4,5-trimethylpiperazin-1-yl]phenyl]benzamide], the negative-log Kd (pKd) was 7.54.
For `C[C@@H]1CN(c2cc(F)c(-c3cnc(N4CCOCC4)nc3)cc2NC(=O)c2cc(F)cc(F)c2)C[C@H](C)N1C` [Example 160, 3,5-difluoro-N-[4-fluoro-5-(2-morpholin-4-ylpyrimidin-5-yl)-2-[(3R,5S)-3,4,5-trimethylpiperazin-1-yl]phenyl]benzamide], the pKd was 7.57.
Regarding `C[C@@H]1CN(c2cc(F)c(C3=CCN(Cc4nccs4)CC3)cc2NC(=O)c2c[nH]c(=O)cc2C(F)(F)F)C[C@H](C)N1C` [Example 162, N-[4-fluoro-2-[(3R,5S)-3,4,5-trimethylpiperazin-1-yl]-5-[1-(1,3-thiazol-2-ylmethyl)-3,6-dihydro-2H-pyridin-4-yl]phenyl]-6-oxo-4-(trifluoromethyl)-1H-pyridine-3-carboxamide], the negative logarithm of the Kd (pKd) is 8.55.

These data come from patent US11319299B2, “Substituted carboxamides as inhibitors of WDR5 protein-protein binding” (PROPELLON THERAPEUTICS INC., priority 2016, dated 2022).
